Test results reported in patent US4495201A, “Pharmaceutical composition and method for treating heart diseases therewith” (Institut Organicheskoi Khimii Imeni N.D. Zelinskogo, priority 1982, dated 1985).

Assays:
[1] = tested on: left ventricle of the heart; assay: Intracardiac hemodynamics (intracavitary pressure); format: in vivo, rabbits; conditions: versus the composition
[2] = tested on: zone of necrosis, perinecrotic zone and myocardium regions spaced from the place of infarction; assay: Experimental myocardial infarction in rabbits: histological, histochemical and electron-microscopic study; format: in vivo, rabbits of the Chinchilla variety; conditions: for effect on reparative processes in the zone of necrosis / organization of the post-infarction scar: comparison of preparations; for activity of lysis-ensuring enzymes: zone of necrosis and perinecrotic areas
Excerpt: The experiment on animals has been performed on 419 rabbits of the Chinchilla variety with experimentally-induced myocardial infarction produced by ligation of the front descending branch of the coronary artery.
The effect of the composition according to the present invention on the progress of the experimental myocardial infarction has been studied in comparison with the effect produced by inosine, potassium orotate, vitamin B12 with folic acid and retabolyl.
Histological, histochemical and electron-microscopic methods of investigation have been employed to study the zone of necrosis, perinecrotic zone and myocardium regions spaced from the place of infarction by 1, 3 and 7 days after operation. Furthermore, to determine the contractile ability of myocardium, measurements of intracavitary pressure have been performed. Dynamic electrocardiographic observation over the animals was carried out 7 times during the first day (prior to operation, 15, 30 minutes, 1, 2, 3 and 4 hours after the administration) and during the following days two times a day (before and one hour after the administration).
The study of the total cross-sectional patterns of a rabbit's heart has made it possible to precisely define these zones.
The first group of rabbits has been intramuscularly injected with the composition according to the present invention in the dose of 1 mg/kg in a day.
The second group of rabbits has been injected with inosine in a dose of 30 mg/kg intravenously daily once a day; for the first time 16 hours after the operation and for the last time 2 hours before slaughter (i.e. before the 7th day). The third group of rabbits has been given potassium orotate in a dose of 30 mg/kg in the same sequence as the previous preparation, i.e. up to the 7th day.
The fourth group of animals has been administered vitamin B12 3γ/kg in combination with folic acid in the same sequence.
The fifth group of rabbits has been administered an anabilic hormone of a prolonged action--retabolyl in a dose of 5 mg/kg of the bodyweight 1-2 times intramuscularly up to the 7th day.

[3] = Solubility and stability; format: physicochemical
[4] = tested on: central hemodynamics; assay: Central hemodynamics by radiocardiography in patients with myocardial infarction; format: in vivo; conditions: as compared to the control
Protocol: (§1) The composition according to the present invention is administered to the patients intramuscularly in a dose of from 25 to 50 mg once every three days.
On the 1th, 10th, 20th and 40th days of the disease the central hemodynamics was determined by the method of radiocardiography.

[5] = tested on: insufficiency of blood circulation and post-infarctional aneurysm; assay: Clinical outcome: insufficiency of blood circulation and post-infarction aneurysm; format: in vivo, patients; conditions: comparison of the composition and inosine
Protocol: as §1
A further dynamic electrocardiographic observation is effected during the first day of injection of the composition (prior to injection and 1 and 2 hours thereafter), then once per 3 and later on--per 5 days. On the 1th, 10th, 20th and 40th days of the disease the central hemodynamics was determined by the method of radiocardiography. On the 10th and 40th days of the illness the contractile capacity of myocardium is assessed by methods of electro- and X-ray kymography. The biochemical control over the effect of the preparation was effected by determination, in dynamics in blood serum, of the products of decomposition of DNA, proline, hydroxyproline, transaminases. There was also analyzed the dynamics of normalization of leukocytosis, ESR (erythrocyte sedimentation rate), disappearance of aneosinophilia. The careful clinical assessment of the effect of the composition was also performed.

Q: What does the source list for `O=C(O)c1cc(O)nc(O)n1` [potassium orotate, 2,6-dihydroxypyrimidine-4-carboxylic acid]?
A: effect on formation of compensatory hyperfunction and hypertrophy of extrainfarction areas [1]: more marked effect; activity of lactatedehydrogenase in extra-infarction areas of myocardium [2]: slightly less pronounced effect; effect on reparative processes in the zone of necrosis / organization of the post-infarction scar [2]: still less pronounced effect; activity of reactions of pentose-phosphate shunt (glucoso-6-phosphatehydrogenase) ([2]; perinecrotic areas of myocardium): slightly increasing activity; activity of lysis-ensuring enzymes [2]: slightly increasing activity

Q: Which “solubility in aqueous solutions of strong acids, alkalis, diluted solutions of salts” value [3] does the source give for `CC(C)=CCCC(C)=CCC(CCCN(C)C)C(=O)O` (stereo not shown) [4',5,9-trimethyl-2-(4'-aza-pentyl)decadi-4,8-ene acid] here?
A: The value was “well soluble”.

Q: And the “solubility in fats and vegetable oils” value [3]?
A: The value was “well soluble”.

Q: And the “solubility in organic solvents (ethanol, ether, acetone, gasoline, benzene)” value [3]?
A: Its value is “well soluble”.

Q: What about the solubility in water [3] of the same molecule?
A: The solubility in water was “well soluble”.

Q: What about the “stability of aqueous solutions” value ([3]; aqueous solutions) of the same molecule?
A: The value was “transparent, stable and can be sterilized by conventional methods”.

Q: And the stability in storage ([3]; not more than 25° C., advisable period two years)?
A: The stability in storage was “stable in storage”.

Q: For `CCCCCCCCCC(=O)O[C@H]1CC[C@H]2[C@@H]3CCC4=CC(=O)CC[C@@H]4[C@H]3CC[C@]12C` [retabolyl, nandrolone decanoate], which “activity of lactatedehydrogenase in extra-infarction areas of myocardium” value [2] is on record?
A: The value was “slightly less pronounced effect”.

Q: And the “effect on reparative processes in the zone of necrosis / organization of the post-infarction scar” value [2]?
A: The value was “less pronounced”.

Q: What does the source list for `O=c1[nH]cnc2c1ncn2[C@@H]1O[C@H](CO)[C@@H](O)[C@H]1O` [inosine, hypoxanthine riboside]?
A: regaining of hemodynamic characteristics (cardiac and systolic indices, beat work of the heart) [4]: more pronounced and earlier regaining; patients in whom effect on state of blood circulation is greatest [5]: most pronounced effect on the state of blood circulation in patients with a repeated myocardial infarction; effect on formation of compensatory hyperfunction and hypertrophy of extrainfarction areas [1]: more marked effect; cellular infiltration of the zone of necrosis [2]: enhanced cellular infiltration of the zone of infarction; effect on reparative processes in the zone of necrosis / organization of the post-infarction scar [2]: substantially less pronounced than the effect of the preparation according to the present invention; activity of lysis-ensuring enzymes [2]: increasing activity of lysis-ensuring enzymes is limited only to the zone of necrosis
